Measurements: US20250099420A1, “SMALL MOLECULE MODULATORS OF GPR139 COMPLEX” (University of Florida Research Foundation, Incorporated, priority 2022, published 2025)
Like-named read-outs stand apart in the source and are kept apart here.

Assays:
[1] = test system: parental HEK cells; experiment: HEK parental Agonist Counterscreen Assay (non-transfected cells); format: cell-based; details: for Averaged Max % Response (±St. Dev.): activity relative to known control
Text: The high control for the agonist counterscreen was Forskolin not acetylcholine.

[2] = molecular target: T1, GPR139 (Homo sapiens, UniProt Q6DWJ6); experiment: GPR139 Agonist titration / agonist counterscreen assay (calcium detection, HEK-GPR139 cells); format: cell-based; parameters: expressed in transfected cells; host or cells: HEK Aequorin cells, Maxcyte transient transfection; details: GPR139 Agonist Activity; for Averaged Max % Response (±St. Dev.): activity relative to known control; for EC50: read-out: EC50
T1 sequence (Q6DWJ6 1-353): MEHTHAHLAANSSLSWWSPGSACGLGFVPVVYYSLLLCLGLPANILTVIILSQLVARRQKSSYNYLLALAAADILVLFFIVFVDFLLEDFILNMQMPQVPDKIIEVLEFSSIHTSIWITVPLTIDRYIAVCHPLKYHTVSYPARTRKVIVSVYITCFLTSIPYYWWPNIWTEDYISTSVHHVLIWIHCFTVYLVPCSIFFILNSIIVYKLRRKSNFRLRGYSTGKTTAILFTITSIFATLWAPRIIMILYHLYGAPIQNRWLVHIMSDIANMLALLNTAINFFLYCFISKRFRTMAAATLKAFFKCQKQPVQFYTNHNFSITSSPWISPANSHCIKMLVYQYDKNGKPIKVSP
Procedure: GPR activity was assessed using a calcium detection assay. […] Negative control samples were treated with DMSO. […] Intracellular calcium was measured using Calcium 5.

[3] = Homo sapiens, HEK293, HEK Agonist Activity, parental non-transfected HEK cells
[4] = HEK Agonist Activity section of Table 4 (parental HEK counterscreen)
[5] = values printed in E-notation without unit
[6] = Homo sapiens, HEK293, HEK Agonist Activity section of Table 4 (parental HEK counterscreen)
[7] = HEK Agonist Activity, parental non-transfected HEK cells

Compound | Lipophilic Efficiency (logD) ([1]; HEK Agonist Activity) | Lipophilic Efficiency (logP) ([1]; HEK Agonist Activity) | Averaged Max % Response (±St. Dev.) [2] | Lipophilic Efficiency (logD) ([2]; based on logD) | Lipophilic Efficiency (logP) ([2]; based on logP) | Efficiency Ligand ([2]; ligand efficiency) | Lipophilic Efficiency (logD) ([1]; HEK Agonist Activity section) | Lipophilic Efficiency (logP) ([1]; HEK Agonist Activity section) | Hill Slope ([2]; fitted dose-response curve) | EC50 [2, 5] | Efficiency Ligand [2] | Hill Slope [2] | Lipophilic Efficiency (logD) [2] | Lipophilic Efficiency (logP) [2] | EC50 ([2]; HEK-GPR139 cells) | Averaged Max % Response (±St. Dev.) ([1]; HEK Agonist Activity) | EC50 [1, 4] | Averaged Max % Response (±St. Dev.) ([1]; HEK Agonist Activity section) | other results
Cc1ccccc1-c1nnc(CN2CCc3ccccc3C2)o1 [SR-01000162178] |  |  | 112.85 ± 32.26% |  |  |  | 1.73 | 1.58 |  |  | 0.40 | 1.13 | 3.44 | 3.29 | 0.272 µM |  |  | 25.44 ± 6.84% | EC50 [1, 6]: > 14.1 µM
CC(C)Cn1c2c(c(=O)[nH]c1=O)C(NC(=O)CCC1CCCCC1)(C(F)(F)F)C(=O)N2 (stereo not drawn) [SR-01000086488] |  |  | 78.41 ± 20.14% |  |  |  | 2.44 | 2.40 |  |  | 0.29 | 1.22 | 3.95 | 3.92 | 0.43 µM |  |  | 1.08 ± 3.12% | EC50 [1, 6]: > 14.1 µM
CC(C)CCNC(=O)CN1CCN(Cc2ccc(F)cc2Cl)C1=O [SR-01000161248] |  |  | 106.33 ± 15.91% |  |  |  | 2.51 | 2.51 |  |  | 0.38 | 1.12 | 4.17 | 4.17 | 0.309 µM |  | > 14.1 µM | −6.23 ± 14.84% | 
N[C@H](Cc1ccccc1Cl)c1nc2ccc(-c3ccncc3)cc2[nH]1.O=C(O)C(F)(F)F.O=C(O)C(F)(F)F [SR-00000003277] |  |  | 97.54 ± 11.30% |  |  |  | 2.04 | 1.13 |  |  | 0.34 | 1.48 | 3.23 | 2.32 | 0.928 µM |  | > 14.1 µM | 29.67 ± 5.05% | 
COc1ccc2c(c1)C[C@H](C(=O)Nc1ccc(-c3cn[nH]c3)cc1OCC1CNC1)NC2.O=C(O)C(F)(F)F.O=C(O)C(F)(F)F.O=C(O)C(F)(F)F [SR-00000006698] |  |  | 88.34 ± 12.18% |  |  |  | 6.10 | 3.11 |  |  | 0.29 | 1.33 | 7.81 | 4.82 | 0.274 µM |  | > 14.1 µM | 5.81 ± 4.77% | 
Cc1ccc(CCNC(=O)Cn2cc3c(n2)CCCC3)cc1 [SR-01000137723] | 1.70 | 1.70 | 136.99 ± 21.58% | 5.09 | 5.09 | 0.52 |  |  | 0.44 | 0.0057 µM |  |  |  |  |  | −4.03 ± 1.74% |  |  | EC50 [1, 3]: > 14.1 µM
Cc1ccc(Nc2cn[nH]c(=S)n2)c(C)c1 [SR-01000013346] |  |  | 74.67 ± 0.55% |  |  |  | 2.37 | 1.95 |  |  | 0.54 | 0.99 | 3.66 | 3.24 | 0.743 µM |  |  | −4.67 ± 3.34% | EC50 [1, 6]: > 14.6 µM
Cc1c(Br)c([N+](=O)[O-])nn1CC(=O)NCCc1ccc(Cl)cc1 [SR-01000298170] | 1.44 | 1.44 | 119.00 ± 5.31% | 4.08 | 4.08 | 0.46 |  |  | 0.27 | 0.0316 µM |  |  |  |  |  | 10.66 ± 2.50% |  |  | EC50 [1, 3]: > 14.1 µM
O=C(C1CC1)N1CCc2cc(S(=O)(=O)NCC3COc4ccccc4O3)ccc21 (stereo not drawn) [SR-01000126429] |  |  | 78.64 ± 16.53% |  |  |  | 2.75 | 2.75 |  |  | 0.29 | 1.58 | 3.90 | 3.90 | 1 µM |  |  | 25.18 ± 6.22% | EC50 [1, 6]: > 14.1 µM
Cc1ccc(C2(C)NC(=O)N(CC(=O)NCC(C)C)C2=O)cc1 (stereo not drawn) [SR-01000048367] | 3.00 | 3.00 | 122.38 ± 5.77% | 5.64 | 5.64 | 0.45 |  |  | 0.74 | 0.0365 µM |  |  |  |  |  | 8.71 ± 14.83% |  |  | EC50 [1, 3]: > 16 µM
Cc1ccc(SCC(=O)NNC(=O)c2cccs2)cc1 [SR-01000286062] |  |  | 99.20 ± 4.08% | 4.23 | 4.23 | 0.48 | 2.20 | 2.20 | 0.78 | 0.132 µM |  |  |  |  |  |  | > 14.1 µM | 8.31 ± 5.73% | 

The next lines start with results.

Lipophilic Efficiency (logD) ([1]; HEK Agonist Activity) | Lipophilic Efficiency (logP) ([1]; HEK Agonist Activity) | Averaged Max % Response (±St. Dev.) [2] | Lipophilic Efficiency (logD) ([2]; based on logD) | Lipophilic Efficiency (logP) ([2]; based on logP) | Efficiency Ligand ([2]; ligand efficiency) | Lipophilic Efficiency (logD) ([1]; HEK Agonist Activity section) | Lipophilic Efficiency (logP) ([1]; HEK Agonist Activity section) | Hill Slope ([2]; fitted dose-response curve) | EC50 [2, 5] | Efficiency Ligand [2] | Hill Slope [2] | Lipophilic Efficiency (logD) [2] | Lipophilic Efficiency (logP) [2] | EC50 ([2]; HEK-GPR139 cells) | Compound | Averaged Max % Response (±St. Dev.) ([1]; HEK Agonist Activity) | EC50 [1, 4] | Averaged Max % Response (±St. Dev.) ([1]; HEK Agonist Activity section) | other results
−0.133 | −0.133 | 136.02 ± 19.68% | 2.73 | 2.73 | 0.39 |  |  |  |  |  |  |  |  |  | O=C(CCc1nc2ccccc2n1-c1ccccc1)NCCc1ccccc1 [SR-01000535824] | 34.71 ± 16.19% |  |  | EC50 [1, 3]: > 12.1 µM
 |  | 107.91 ± 12.91% | 4.98 | 4.98 | 0.40 | 3.22 | 3.22 | 0.75 | 0.242 µM |  |  |  |  |  | CC1=NNC(=O)C1CC(=O)N/N=C/c1cccc2ccccc12 (stereo not drawn) [SR-01000080433] |  | > 14.1 µM | 29.03 ± 7.47% | 
1.43 | 1.43 | 109.87 ± 14.69% | 4.06 | 4.05 | 0.36 |  |  | 0.93 | 0.0344 µM |  |  |  |  |  | COc1cc(OC)cc(-c2nnc(NC(=O)Cc3cccc4ccccc34)o2)c1 [SR-01000012205] | 1.53 ± 2.99% |  |  | EC50 [1, 7]: > 14.5 µM
 |  | 96.78 ± 9.37% |  |  |  | 3.56 | 3.55 |  |  | 0.35 | 1.48 | 4.77 | 4.76 | 0.857 µM | O=C(CSCc1cccc2ccccc12)Nc1c[nH]c(=O)[nH]c1=O [SR-01000296110] |  | > 14.1 µM | 3.41 ± 3.54% | 
 |  | 92.13 ± 1.72% |  |  |  | 1.11 | 1.09 |  |  | 0.30 | 0.47 | 2.69 | 2.68 | 0.365 µM | Cc1ccccc1-c1nc(C[S+]([O-])CC(=O)NC(C)CCc2ccccc2)c(C)o1 (stereo not drawn) [SR-01000129545] |  | > 14.1 µM | 32.45 ± 12.40% | 
0.77 | 0.77 | 114.67 ± 3.82% | 4.37 | 4.37 | 0.49 |  |  | 1.18 | 0.0037 µM |  |  |  |  |  | O=C(CSc1ccc2ccccc2c1)NNC(=O)c1ccc(Br)s1 [SR-01000069345] | 15.34 ± 2.20% |  |  | EC50 [1, 7]: > 14.7 µM
 |  | 101.74 ± 19.26% |  |  |  | 1.47 | 1.47 |  |  | 0.29 | 1.51 | 3.10 | 3.10 | 0.328 µM | O=C(CC1CCN(Cc2ccccc2O)C1=O)C1CCC(c2cccc(O)c2)C(O)C1 (stereo not drawn) [SR-01000151350] |  |  | 12.46 ± 7.98% | EC50 [1, 6]: > 14.1 µM
1.28 | 1.28 | 110.51 ± 12.41% | 5.58 | 5.58 | 0.49 |  |  |  |  |  |  |  |  |  | CCOc1ccc(C(=O)NCCn2ccc3ccccc32)cc1OCC [SR-01000907288] | 14.88 ± 7.51% |  |  | EC50 [1, 3]: > 14.1 µM
